# Reference: patent publication US20230065562A1, “DUAL CONTROLS FOR THERAPEUTIC CELL ACTIVATION OR ELIMINATION” (Bellicum Pharmaceuticals, Inc., priority 2015, published 2023)
# How the values were obtained:
# [1] = system: SLL-peptide pulsed T2 cells; assay: IL-2 secretion of iMC-PRAME TCR T cells with SLL-peptide pulsed T2 cells; format: cell-based; details: FIG. 117D
# [2] = system: CD123+ THP-1 tumor cells; assay: NSG tumor xenograft model, THP-1-EGFPluc, iMC-CD123.ζ-modified T cells with Rim; format: in vivo, mouse; details: costimulation by systemic rimiducid administration (1 mg/kg i.p. days 0 and 15)
# Experimental: Animal experiments: In vivo efficacy of iMC-CD123.ζ-modified T cells was assessed using an immune-deficient NSG tumor xenograft model. One million EGFPluc-expressing CD123^+ THP-1 tumor cells were injected i.v. into the animals, followed by a single i.v. injection on day 7 with varying non-transduced or iMC-CD123.ζ-modified T cells. Groups receiving CAR-T cells subsequently received i.p. injections of Rim (1 mg/kg) or vehicle only on days 0 and 15 post-T cell injection. Animals were evaluated for THP-1-EGFPluc tumor burden and weight change on a weekly basis using IVIS bioluminescent imaging (BLI) and for T cell persistence by flow cytometry and qPCR at day 30 post-T cell injection.
# FIG. 114. (A) PBMCs were activated and transduced with retrovirus including the CD123 iMC-CARζ vector. Twelve days after transduction, CAR expression was determined using anti-Q-bend10 antibody before injection into mice. […] (C) THP1-GFP.Fluc growth was measured using IVIS bioluminescence. (D, E) On day 30, mice were sacrificed and spleens were analyzed for the presence of CAR-T cells by flow cytometry and vector copy number assay.
# (B) On day 29, mice were sacrificed and spleens were analyzed for the presence of CAR-T cells by vector copy number assay.
# [3] = target: iC9 (pBP220) (Homo sapiens, UniProt P62942, F37V); assay: SRα-SEAP assay of drug specificity, iC9 switch, 293 cells; details: SRα-SEAP reporter, FIG. 108A
# Chain of iC9 (pBP220) (P62942 2-108 F37V): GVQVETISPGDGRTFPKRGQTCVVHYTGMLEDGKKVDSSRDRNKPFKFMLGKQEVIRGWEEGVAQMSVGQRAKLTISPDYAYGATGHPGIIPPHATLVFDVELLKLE
# Chain of iC9 (pBP220) (P55211 135-416 partner limits assumed): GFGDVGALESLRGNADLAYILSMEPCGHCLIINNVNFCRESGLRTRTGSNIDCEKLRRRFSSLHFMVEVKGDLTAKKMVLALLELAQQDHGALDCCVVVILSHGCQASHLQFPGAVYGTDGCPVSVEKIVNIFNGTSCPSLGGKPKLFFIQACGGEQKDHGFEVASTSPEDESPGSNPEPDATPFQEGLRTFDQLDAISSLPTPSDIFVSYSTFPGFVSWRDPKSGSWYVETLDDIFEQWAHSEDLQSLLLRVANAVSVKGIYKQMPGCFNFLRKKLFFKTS
# [4] = system: iCasp9-ΔCD19-transduced MSCs; assay: In vivo killing studies of iCasp9-ΔCD19 MSCs in murine model; design: species or system SCID mice
# Experimental: All mouse experiments were performed in accordance with the Baylor College of Medicine animal husbandry guidelines. To assess the persistence of modified MSCs in vivo, a SCID mouse model was used in conjunction with an in vivo imaging system. MSCs were transduced with retroviruses coding for the enhanced green fluorescent protein-firefly luciferase (eGFP-FFLuc) gene alone or together with the iCasp9-ΔCD19 gene. Cells were sorted for eGFP positivity by fluorescence activated cell sorting using a MoFlo flow cytometer (Beckman Coulter, Fullerton, Calif.). Doubly transduced cells were also stained with PE-conjugated anti-CD19 and sorted for PE-positivity. SCID mice (8-10 weeks old) were injected subcutaneously with 5×10^5 MSCs with and without iCasp9-ΔCD19 in opposite flanks. […] For in vivo imaging of MSCs expressing eGFP-FFLuc, mice were injected intraperitoneally with D-luciferin (150 mg/kg) and analyzed using the Xenogen-IVIS Imaging System. Total luminescence (a measurement proportional to the total labeled MSCs deposited) at each time point was calculated by automatically defining regions-of-interest (ROIs) over the MSC implantation sites. These ROIs included all areas with luminescence signals at least 5% above background. Total photon counts were integrated for each ROI and an average value calculated. […]
Compound,"IL-2 secretion, PRAME TCR with iMC [1]",eradication of CD123+ leukemic cells by iMC-CARζ T cells [2],activation of the iC9 switch [3],proportion of surviving iCasp9-positive cells after one week ([4]; qPCR iCasp9/eGFP copy ratio) [%],killing / depletion of iCasp9-positive cells in vivo ([4]; two i.p. injections of 50 μg CID 24 h apart) [%]
CC[C@H](C(=O)N1CCCC[C@H]1C(=O)O[C@H](CCc1ccc(OC)c(OC)c1)c1cccc(OCC(=O)NCCNC(=O)COc2cccc([C@@H](CCc3ccc(OC)c(OC)c3)OC(=O)[C@@H]3CCCCN3C(=O)[C@@H](CC)c3cc(OC)c(OC)c(OC)c3)c2)c1)c1cc(OC)c(OC)c(OC)c1 [rimiducid],maximal IL-2 secretion,efficiently eradicated,can activate,–,–
CC[C@H](C(=O)N1CCCC[C@H]1C(=O)O[C@H](CCc1ccc(OC)c(OC)c1)c1cccc(OCC(=O)NCC(CNC(=O)COc2cccc([C@@H](CCc3ccc(OC)c(OC)c3)OC(=O)[C@@H]3CCCCN3C(=O)[C@@H](CC)c3cc(OC)c(OC)c(OC)c3)c2)CN(C)C)c1)c1cc(OC)c(OC)c(OC)c1 [AP20187],–,–,–,0.7,> 99
